Patent US20200140560A1, “PROTEASE BASED SWITCH CHIMERIC ANTIGEN RECEPTORS FOR SAFER CELL IMMUNOTHERAPY” (CELLECTIS, priority 2017, published 2020)
pIC50: −log10 of the molar value. “Also recorded” adds a separate entry of the source.

Assays:
[1] = system: degron CARs (anti-CD123, anti-CD22) with NS3 protease domain in primary human T-cells; experiment: Surface expression of C-terminal fusion degron CARs in primary human T-cells (flow cytometry, labeled recombinant CD22 or CD123); type: cell-based; details: 500 nM Asunaprevir for 48 h, FIG. 6
Excerpt: FIG. 6: Experimental results obtained with T-cells endowed with the CARs of the present invention. 6A: Percentage of CAR positive T-cells (presentation of anti-CD123 CARs at the surface of the transduced cells) in presence or absence of the protease inhibitor Asunaprevir. 6B: Percentage of CAR positive T-cells (presentation of anti-CD22 CARs at the surface of the transduced cells) in presence or absence of the protease inhibitor Asunaprevir). Controls are T-cells endowed with CARs lacking controlled degradation moiety (high presentation of CARs at the surface of the transduced cells). The percentage of CAR positive cells is measured by flow cytometry. Experimental details are provided in example 2.
3-5 days post transduction T-cells were incubated with or without 500 nM Asunaprevir for 48 h. The proportion of T-cells expressing the CAR at their surface was then quantified using labeled recombinant protein CD22 or CD123 targeted by the CAR (LakePharma).

T-cells = experiment: T-cell proliferation in presence of Asunaprevir; type: cell-based, human; details: 100 nM to 1 μM ASN; FIG. 9
Description: FIG. 9: Proliferation of T-cells in the presence of increasing concentrations of Asunaprevir (see example 5). The total number of cells at different days cultured in presence of 100 nM, 500 nM or 1000 nM relative to 0 nM ASN is presented. Data are shown as the median of PBMC from 2 donors done in duplicate.
T-cells were cultured in X-Vivo 15 (Lonza) supplemented with 5% human serum hAB (Gemini) and 20 ng/ml IL-2 (Miltenyi) at a density of 1×10^6 cells/ml in presence of various dose (0-1000 nM) of the Asunaprevir protease inhibitor.

[2] = system: anti-CD22 CAR T-cells co-cultured with Raji target cells; experiment: Cytokine profiling of anti-CD22 CAR T-cells co-cultured with Raji target cells in presence of Asunaprevir; type: cell-based, human; details: various concentrations of ASN, 24 hours co-culture with Raji; FIG. 10
Description: FIG. 10: Cytokine quantification after co-culture of anti-CD22 CAR T-cells with target cells as a function of Asunaprevir concentration (see example 6). Data are shown as the mean±SD of duplicates per points.
T-cells were co-cultured with Raji target cells in 12-well culture plates in the presence of various concentrations of ASN for 24 hours. Cells were spun down, and the supernatants were aliquoted and frozen. Cytokine levels in the supernatants were measured with LEGEND plex Human Th Cytokine panel (Biolegend).

[3] = system: Raji target cells killed by SWOFF anti-CD22 CAR T-cells (TRAC locus integration); experiment: Cytotoxicity of T-cells with SWOFF anti-CD22 CAR integrated at the TRAC locus against luciferase-expressing Raji cells, Asunaprevir dose response; type: cell-based, human
Description: Data are shown as median with 95% confidence intervals of triplicates per points. N=2, performed in triplicates.
T-cells were then passaged the day prior to the transfection/transduction at 1×10^6 cells/ml in complete media. On the day of transfection/transduction, the cells were de-beaded by magnetic separation (EasySep), washed twice in Cytoporation buffer T (BTX Harvard Apparatus, Holliston, Mass.), and resuspended at a final concentration of 28×10^6 cells/ml in the same solution.
The electroporated cells were then immediately transferred to a 12-well plate containing 1 ml of prewarmed X-vivo-15 serum-free media and incubated for 37° C. for 15 min. The cells were then plated at a concentration of 10,000 cells/well with AAV in a 20 μl total volume of serum-free media (MOI: 1×10^5 vg/cells) in 96-well round bottom plates. […] 100 pL of fresh complete media was then added. Six days after transduction, 0.5×10^6 cells were seeded in a G-Rex 24-well plate (Wilson Wolf) in 5 ml of complete X-vivo-15 media and cultivated for 11 days.
After 24 h, the cells are collected and mixed, and 100 ul of cells was used for luciferase quantification (OneGlo, Promega). The remainder of the cells were pelleted and resuspended in fresh X-vivo 15 media with 5% hAB serum, no 11-2 (supplemented with or without 1-500 nM Asunaprevir), and an additional 0.5×10^6 target cells were added.

[4] = system: CD22 positive Raji cells killed by anti-CD22 degron CAR T-cells; experiment: Cytolytic properties of anti-CD22 degron CAR T-cells after wash-out of Asunaprevir; details: 500 nM Asunaprevir, wash-out 48 h, 24 h or 0 h prior to cytotoxicity assay; Raji 3:1; FIGS. 8A and 8B
Description: A fraction of the cells is maintained under 500 nM of Asunaprevir (correspond to the no wash-out point).
After 24 h the cells are pelleted, the supernatant is collected for luciferase quantification.

[5] = system: CD22 positive target cells (Raji) killed by degron CAR T-cells; experiment: Cytolytic properties of C-terminal fusion degron CAR T-cells against luciferase-expressing Raji cells with Asunaprevir; details: 500 nM Asunaprevir; T-cells:Raji 3:1; 3 consecutive days; FIG. 7
Description: Data are normalized using untransduced human primary T-cells.
After 24 h the cells were pelleted, the supernatant was collected for luciferase quantification and the pelleted cells were resuspended in fresh complete X-vivo (supplemented or not with 500 nM Asunaprevir) media and 0.5×10^6 target cells (CD22 positive cells) were added.

For `C=C[C@@H]1C[C@]1(NC(=O)[C@@H]1C[C@@H](Oc2ncc(OC)c3ccc(Cl)cc23)CN1C(=O)[C@@H](NC(=O)OC(C)(C)C)C(C)(C)C)C(=O)NS(=O)(=O)C1CC1` [Asunaprevir, asunaprevir], the “CAR presentation at the surface, control CARs lacking the self-excising degron” value ([1]; control CARs) was “did not react”, the “CAR presentation at the surface of the transduced T-cells population” value ([1]; degron CARs anti-CD123 / anti-CD22) was “could be controlled by Asunaprevir” and the “proliferation of the T-cells” value (T-cells) was “no effects”. For the same molecule, the “viability of the T-cells” value (T-cells) was “no effects”, the cytokine production [2] was “did not result in notable variations” and the “CAR T-cells cytolytic properties (luciferase signal of target cells)” value ([3]; 1 to 500 nM Asunaprevir, T-cells:Raji 3:1, FIG. 14) was “controlled by addition of Asunaprevir”. The pIC50 ([3]; Homo sapiens, Raji, read-out: IC50 of control of CAR T-cells cytolytic properties) was roughly 7.82, the “CAR cytolytic properties after wash-out of Asunaprevir” value [4] was “controlled by Asunaprevir in a reversible manner” and the “CAR cytolytic properties (percentage of CD22 positive target cells killed)” value [5] was “could be negatively controlled; also recorded: reduced”.
